Results: patent US8785614B2, “Aberrantly methylated genes in pancreatic cancer” (The Johns Hopkins University, priority 2003, dated 2014)

Tested on: MiaPaCa2 pancreatic cancer cell line
Experiment: Oligonucleotide microarray gene expression after TSA (1 μM, 24 h) vs mock
Type: cell-based, human
Method: Mock-treated cells were cultured with the equivalent volume of PBS alone.
Total RNA was isolated from cultured cells using TRIZOL reagent (invitrogen, Carlsbad, Calif.) and purified using RNeasy Mini Kit (Qiagen, Valencia, Calif.). First- and second-stranded cDNA was synthesized from 10 μg of total RNA using 17-dT) primer (Genset Corp., La Jolla, Calif.) and Superscript Choice system (Invitrogen). Labeled cRNA was synthesized from the purified cDNA by in vitro transcription reaction using the BioArray High Yield RNA Transcript Labeling Kit (Enzo Diagnostics, Inc., Farmingdale, N.Y.) at 37° C. for 6 h. The cRNA was fragmented at 94° C. for 35 min. in a fragmentation buffer [40 mM Tris-acetate @ pH 8.1, 100 mM potassium acestate, and 30 mM magnesium acetate]. The fragmented cRNA was then hybridized to the Human Genome U133A chips (Affymetrix, Santa Clara, Calif.) with 18462 unique gene/EST transcripts at 45° C. for 16 h. The washing and staining procedure was performed in the Affymetrix Fluidics Station according to the manufacturer's instructions. The probes were then scanned using a laser scanner, and signal intensity for each transcript (background-subtracted and adjusted for noise) was calculated using Microarray Suite Software 5.0 (Affymetrix).
Fold change analysis of signal intensities obtained from oligonucleotide microarrays between the two treatment groups was performed using Data Mining software (Afrymetrix).

CC(/C=C/C(=O)NO)=C\[C@@H](C)C(=O)c1ccc(N(C)C)cc1 [TSA, trichostatin A]
Fold-change after TSA treatment (ADM, MiaPaCa2): 5.02 fold
Fold-change after TSA treatment (ANGPT1, MiaPaCa2): 1.75 fold
Fold-change after TSA treatment (AREG, MiaPaCa2): 3.97 fold
Fold-change after TSA treatment (ATF3, MiaPaCa2): 2.14 fold
Fold-change after TSA treatment (BIK, MiaPaCa2): 10.05 fold
Fold-change after TSA treatment (CACNA1G, MiaPaCa2): 4.61 fold
Fold-change after TSA treatment (CAPN5, MiaPaCa2): 5.18 fold
Fold-change after TSA treatment (CDH8, MiaPaCa2): −1.29 fold
Fold-change after TSA treatment (CDKN1C, MiaPaCa2): 13.22 fold
Fold-change after TSA treatment (CGR11, MiaPaCa2): 3.22 fold
Fold-change after TSA treatment (CHES1, MiaPaCa2): −1.03 fold
Fold-change after TSA treatment (CHFR, MiaPaCa2): 1.27 fold
Fold-change after TSA treatment (CLDN15, MiaPaCa2): 1.13 fold
Fold-change after TSA treatment (EDR1, MiaPaCa2): 5.91 fold
Fold-change after TSA treatment (EGR4, MiaPaCa2): 8.67 fold
Fold-change after TSA treatment (EREG, MiaPaCa2): 1.7 fold
Fold-change after TSA treatment (GADD45B, MiaPaCa2): 5.06 fold
Fold-change after TSA treatment (GAGE1, MiaPaCa2): 0.53 fold
Fold-change after TSA treatment (GAGE2, MiaPaCa2): 1.31 fold
Fold-change after TSA treatment (GAGE3, MiaPaCa2): −2.68 fold
Fold-change after TSA treatment (GAGE4, MiaPaCa2): 1.32 fold
Fold-change after TSA treatment (GAGE6, MiaPaCa2): −2.17 fold
Fold-change after TSA treatment (GAGE7B, MiaPaCa2): −1.76 fold
Fold-change after TSA treatment (H1 historic family, member 2 (BC002649), MiaPaCa2): 4.16 fold
Fold-change after TSA treatment (HEP27, MiaPaCa2): 26.21 fold
Fold-change after TSA treatment (HMOX1, MiaPaCa2): 5.25 fold
Fold-change after TSA treatment (HPSE, MiaPaCa2): 14.09 fold
Fold-change after TSA treatment (ID2, MiaPaCa2): 2.27 fold
Fold-change after TSA treatment (ING1, MiaPaCa2): 13.25 fold
Fold-change after TSA treatment (KLK12, MiaPaCa2): 2.91 fold
Fold-change after TSA treatment (MAGE1, MiaPaCa2): 5.17 fold
Fold-change after TSA treatment (MBD1, MiaPaCa2): 1.28 fold
Fold-change after TSA treatment (MMP1, MiaPaCa2): 1.01 fold
transcripts with marked induction (MiaPaCa2): 207 transcripts
transcripts with marked induction, share of transcripts analyzed (MiaPaCa2): 1.1%
Fold-change after TSA treatment (NGFR, MiaPaCa2): 13.46 fold
Fold-change after TSA treatment (NOTCH3, MiaPaCa2): −1.04 fold
Fold-change after TSA treatment (P-glycoprotein (mdr1), MiaPaCa2): 2.74 fold
Fold-change after TSA treatment (STC1, MiaPaCa2): 2.73 fold
Fold-change after TSA treatment (UCPH, MiaPaCa2): 6.39 fold
Fold-change after TSA treatment (ULBP2, MiaPaCa2): 4.09 fold
Fold-change after TSA treatment (WNT4, MiaPaCa2): 3.36 fold
Fold-change after TSA treatment (candidate tumor suppressor gene 21 protein (AF040708), MiaPaCa2): 1.15 fold
Fold-change after TSA treatment (connective tissue growth factor (M92934), MiaPaCa2): 4.28 fold
Fold-change after TSA treatment (hemoglobin, alpha 1 (HBAI), MiaPaCa2): 77.77 fold
Fold-change after TSA treatment (interleukin 8, MiaPaCa2): 1.36 fold
Fold-change after TSA treatment (period homolog 1 (PERI), MiaPaCa2): 1.28 fold
Fold-change after TSA treatment (prostate differentiation factor (AF003934), MiaPaCa2): 16.4 fold
Fold-change after TSA treatment (protease inhibitor 12 (neuroserpin) (SERPINU), MiaPaCa2): 44.44 fold
Fold-change after TSA treatment (synovial sarcoma, X breakpoint 1 (BC001003), MiaPaCa2): 1.5 fold
Fold-change after TSA treatment (tissue factor pathway inhibitor-2 (L27624), MiaPaCa2): −0.68 fold
